Measurements taken from patent US20050075375A1 (priority 2003, published 2005).
pEC50: −log10 of the molar value. Like-named read-outs stand apart in the source and are kept apart here.

System: monocistronic NK5.1 HCV replicon in Huh7 cells
Experiment: HCV replicon assay, monocistronic replicon cell line
Format: cell-based, hepatitis C virus
Details: Hepatitis C virus, read-out: Mono EC50 Median
Procedure, shortened: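 EC50 derives from the HCV RNA/GAPDH RNA ratio by one-step TaqMan RT-PCR, relative to DMSO-only wells. Compounds (six half-log concentrations, 0.6% DMSO) were incubated 3 days at 37 °C with NK5.1 monocistronic replicon Huh7 cells plated a day earlier.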

[1] = Huh-7, 72 h, table T3 (compounds 471-640), monocistronic replicon in Huh7 cells, 3 days incubation, HCV RNA/GAPDH RNA by TaqMan RT-PCR
[2] = Huh-7, 72 h, Table 1, monocistronic replicon in Huh7 cells, 3 days incubation, HCV RNA/GAPDH RNA by TaqMan RT-PCR
[3] = Huh-7, monocistronic NK5.1 HCV replicon in Huh7 cells, median value

Structure (SMILES) | pEC50 [2] | pEC50 [3] | also measured
Oc1ccc(Br)cc1-c1nc(-c2ncccc2Br)n[nH]1 [Compound 492, 2-[5-(3-Bromo-pyridin-2-yl)-2H-[1,2,4]triazol-3-yl]-4-Bromo-phenol] |  |  | pEC50 [1]: 5.27
O=[N+]([O-])c1cccc(-c2nc(-c3ncccc3[N+](=O)[O-])no2)c1 [Compound 156, 3-Nitro-2-[5-(3-nitro-phenyl)-[1,2,4]oxadiazol-3-yl]-pyridine] |  |  | pEC50 (Huh-7, 72 h): < 4.72
COc1ccc(-c2ccn(-c3ncccc3C)n2)c(O)c1 [Compound 91, 5-Methoxy-2-[1-(3-methyl-pyridin-2-yl)-1H-pyrazol-3-yl]-phenol] | 5.04 |  | 
O=[N+]([O-])c1cccnc1-c1n[nH]c(-c2c(O)ccc3ccccc23)n1 [Compound 558, 1-[5-(3-Nitro-pyridin-2-yl)-2H-[1,2,4]triazol-3-yl]-naphthalen-2-ol] |  |  | pEC50 [1]: < 5.49
CC(C)(C)c1ccc(O)c(-c2nc(-c3cnccc3C(F)(F)F)n[nH]2)c1 [Compound 411, 4-tert-Butyl-2-[5-(4-trifluoromethyl-pyridin-3-yl)-2H-[1,2,4]triazol-3-yl]-phenol] |  | 5.00 | 
COc1ccc(O)c(-c2ccn(Cc3ccccn3)n2)c1 [Compound 113, 4-Methoxy-2-(1-pyridin-2-ylmethyl-1H-pyrazol-3-yl)-phenol] | < 4.49 |  | 
O=[N+]([O-])c1ccc(O)c(-c2nc(-c3nccc4ccccc34)no2)c1 [Compound 195, 2-(3-Isoquinolin-1-yl-[1,2,4]oxadiazol-5-yl)-4-nitro-phenol] | < 4.49 |  | 
CC(=O)Nc1ccc(-c2noc(-c3cc(Br)ccc3O)n2)nc1 [Compound 263, N-{6-[5-(5-Bromo-2-hydroxy-phenyl)-[1,2,4]oxadiazol-3-yl]-pyridin-3-yl}-acetamide] |  | < 4.72 | 
Cc1cc(-c2ccc3ccccc3c2O)n(-c2ccccn2)n1 [Compound 9, 2-(5-Methyl-2-pyridin-2-yl-2H-pyrazol-3-yl)-naphthalen-1-ol] | < 4.72 |  | 
COc1ccc(O)c(-c2nc(-c3ncccc3[N+](=O)[O-])no2)c1 [Compound 160, 4-Methoxy-2-[3-(3-nitro-pyridin-2-yl)-[1,2,4]oxadiazol-5-yl]-phenol] | < 4.72 |  | 
Oc1c(-c2nc(-c3ncccn3)n[nH]2)ccc2ccccc12 [Compound 574, 2-(5-Pyrimidin-2-yl-2H-[1,2,4]triazol-3-yl)-naphthalen-1-ol] |  |  | pEC50 [1]: < 4.49
COc1ccc(O)c(-c2nc(-c3cnccc3C(F)(F)F)n[nH]2)c1 [Compound 414, 4-Methoxy-2-[5-(4-trifluoromethyl-pyridin-3-yl)-2H-[1,2,4]triazol-3-yl]-phenol] |  | < 4.72 | 
O=[N+]([O-])c1cccc(-c2nc(-c3ccccn3)n[nH]2)c1 [Compound 364, 2-[5-(3-Nitro-phenyl)-1H-[1,2,4]triazol-3-yl]-pyridine] |  | < 4.49 | 
Cc1cccc(-c2n[nH]c(-c3c(O)ccc4ccccc34)n2)n1 [Compound 409, 1-(5-(6-methyl-pyridin-2-yl)-2H-[1,2,4]triazol-3-yl)-naphthalen-2-ol] |  | < 4.72 | 
COc1cccc(-c2nc(-c3ncccc3[N+](=O)[O-])no2)c1 [Compound 165, 2-[5-(3-Methoxy-phenyl)-[1,2,4]oxadiazol-3-yl]-3-nitro-pyridine] | 4.74 |  | 
COc1cccc(-c2nc(-c3ncccc3-c3ccccc3)no2)c1O [Compound 230, 2-Methoxy-6-[3-(3-phenyl-pyridin-2-yl)-[1,2,4]oxadiazol-5-yl]-phenol] | 5.01 | 5.01 | 
Cc1cccnc1-c1n[nH]c(-c2cc(Br)cc(Br)c2O)n1 [Compound 623, 4,6-Dibromo-2-[5-(3-methyl-pyridin-2-yl)-2H-[1,2,4]triazol-3-yl]-phenol] |  |  | pEC50 [1]: 5.82
Cc1cc(-c2ccccc2O)nn1-c1ccccc1 [Compound 11, 2-(5-Methyl-1-phenyl-1H-pyrazol-3-yl)-phenol] | 5.05 |  | 
O=[N+]([O-])c1ccc(Cl)c(-c2nc(-c3ccccn3)no2)c1 [Compound 173, 2-[5-(2-Chloro-5-nitro-phenyl)-[1,2,4]oxadiazol-3-yl]-pyridine] | 5.42 |  | 
Cc1cc(-c2ccc3ccccc3c2O)nn1-c1ccccc1C(F)(F)F [Compound 16, 2-[5-Methyl-1-(2-trifluoromethyl-phenyl)-1H-pyrazol-3-yl]-naphthalen-1-ol] | 4.77 |  | 
COc1ccc(-c2nc(-c3nccc4ccccc34)no2)c(O)c1 [Compound 205, 2-(3-Isoquinolin-1-yl-[1,2,4]oxadiazol-5-yl)-5-methoxy-phenol] | 6.00 |  | 
CC(C)(C)c1ccc(O)c(-c2nc(-c3ccc(C(F)(F)F)cn3)n[nH]2)c1 [Compound 507, 4-tert-Butyl-2-[5-(5-trifluoromethyl-pyridin-2-yl)-2H-[1,2,4]triazol-3-yl]-phenol] |  |  | pEC50 [1]: < 4.72
COc1ccc(-c2ccn(-c3ncccc3C(F)(F)F)n2)c(F)c1 [Compound 51, 2-[3-(2-Fluoro-4-methoxy-phenyl)-pyrazol-1-yl]-3-trifluoromethyl-pyridine] | 4.70 |  | 

Structure (SMILES) | pEC50 [2] | pEC50 [3] | also measured
Cc1cccc(-c2n[nH]c(-c3cccc(Br)c3)n2)n1 [Compound 463, 2-[5-(3-Bromo-phenyl)-1H-[1,2,4]triazol-3-yl]-6-methyl-pyridine] |  | 4.72 | 
CC(C)c1ccc(-c2nc(-c3ncccc3Br)n[nH]2)cc1 [Compound 502, 3-Bromo-2-[5-(4-isopropyl-phenyl)-1H-[1,2,4]triazol-3-yl]-pyridine] |  |  | pEC50 [1]: 4.92
COc1ccccc1-c1ccn(-c2ccccc2[N+](=O)[O-])n1 [Compound 31, 3-(2-Methoxy-phenyl)-1-(2-nitro-phenyl)-1H-pyrazole] | 4.68 |  | 
Oc1ccc(F)cc1-c1nc(-c2ncccc2Br)n[nH]1 [Compound 486, 2-[5-(3-Bromo-pyridin-2-yl)-2H-[1,2,4]triazol-3-yl]-4-Fluoro-phenol] |  |  | pEC50 [1]: 5.13
Cc1ccccc1-c1nnc(-c2ccccc2F)o1 [Compound 313, 2-(2-Fluoro-phenyl)-5-o-tolyl-[1,3,4]oxadiazole] |  | < 4.49 | 
Oc1ccc(O)c(-c2nc(-c3cnccn3)n[nH]2)c1 [Compound 588, 4-Hydroxy-2-(5-pyrazin-2-yl-2H-[1,2,4]triazol-3-yl)-phenol] |  |  | pEC50 [1]: < 4.49
COc1ccc(OC)c(-c2nc(-c3ccccn3)no2)c1 [Compound 142, 2-[5-(2,5-Dimethoxy-phenyl)-[1,2,4]oxadiazol-3-yl]-pyridine] | 4.70 |  | 
COc1cccc(-c2nc(-c3ccc(NC(C)=O)cn3)no2)c1O [Compound 260, N-{6-[5-(2-Hydroxy-3-methoxy-phenyl)-[1,2,4]oxadiazol-3-yl]-pyridin-3-yl}-acetamide] |  | 4.35 | 
Oc1ccc(F)cc1-c1nc(-c2nccc3ccccc23)n[nH]1 [Compound 369, 4-Fluoro-2-(5-isoquinolin-1-yl-2H-[1,2,4]triazol-3-yl)-phenol] |  | 5.46 | 
Cc1cccc(-c2n[nH]c(-c3cccc([N+](=O)[O-])c3)n2)n1 [Compound 404, 6-Methyl-2-[5-(3-nitro-phenyl)-1H-[1,2,4]triazol-3-yl]-pyridine] |  | < 4.72 | 
COc1ccc(O)c(-c2nc(-c3ccc(N)cn3)no2)c1 [Compound 252, 2-[3-(5-Amino-pyridin-2-yl)-[1,2,4]oxadiazol-5-yl]-4-methoxy-phenol] |  | 5.04 | 
Cc1cccnc1-c1n[nH]c(-c2ccc(-c3ccccc3)c(F)c2)n1 [Compound 448, 2-[5-(2-Fluoro-biphenyl-4-yl)-1H-[1,2,4]triazol-3-yl]-3-methyl-pyridine] |  | 4.55 | 
FC(F)(F)c1ccncc1-c1n[nH]c(-c2c(Cl)cccc2Cl)n1 [Compound 477, 3-[5-(2,6-Dichloro-phenyl)-1H-[1,2,4]triazol-3-yl]-4-trifluoromethyl-pyridine] |  |  | pEC50 [1]: < 4.49
Cc1cccc(-c2n[nH]c(-c3ccc(C(C)C)cc3)n2)n1 [Compound 408, 2-[5-(4-Isopropyl-phenyl)-1H-[1,2,4]triazol-3-yl]-6-methyl-pyridine] |  | < 4.72 | 
CC(C)(C)c1ccc(O)c(-c2nc(-c3cnccn3)n[nH]2)c1 [Compound 575, 4-tert-Butyl-2-(5-pyrazin-2-yl-2H-[1,2,4]triazol-3-yl)-phenol] |  |  | pEC50 [1]: 5.05
O=[N+]([O-])c1cccc(-c2nc(-c3ccc(C(F)(F)F)cn3)n[nH]2)c1 [Compound 520, 2-[5-(3-Nitro-phenyl)-1H-[1,2,4]triazol-3-yl]-5-trifluoromethyl-pyridine] |  |  | pEC50 [1]: < 4.72
Oc1ccc(O)c(-c2nc(-c3ccccn3)n[nH]2)c1 [Compound 386, 4-Hydroxy-2-(5-pyridin-2-yl-2H-[1,2,4]triazol-3-yl)-phenol] |  | < 4.72 | 
COc1cccc(-c2nc(-c3ncccc3C)n[nH]2)c1O [Compound 453, 6-Methoxy-2-(5-(3-methyl-pyridin-2-yl)-2H-[1,2,4]triazol-3-yl)-phenol] |  | 4.68 | 
COc1ccccc1-c1ccnn1-c1ccccc1[N+](=O)[O-] [Compound 32, 5-(2-Methoxy-phenyl)-1-(2-nitro-phenyl)-1H-pyrazole] | 5.44 |  | 
COc1ccc2ccccc2c1-c1nc(-c2nccc3ccccc23)no1 [Compound 203, 1-[5-(2-Methoxy-naphthalen-1-yl)-[1,2,4]oxadiazol-3-yl]-isoquinoline] | 4.64 |  | 
O=[N+]([O-])c1cccc(-c2nc(-c3ccccn3)no2)c1 [Compound 148, 2-[5-(3-Nitro-phenyl)-[1,2,4]oxadiazol-3-yl]-pyridine] | < 4.72 |  | 
O=[N+]([O-])c1cccnc1-c1noc(-c2cccc3ccccc23)n1 [Compound 157, 2-(5-Naphthalen-1-yl-[1,2,4]oxadiazol-3-yl)-3-nitro-pyridine] | 5.33 |  | 
